Our source for the RP-LC retention time values is the METLIN SMRT retention time set (Domingo-Almenara et al. 2019).

Each structure is given as a SMILES string.

A short description of this data set: gradient 5% acetonitrile 3 min, to 50% in 2 min, to 85% in 15 min, held 3 min, 100 µL/min. As to conditions: column: Zorbax Extend-C18 2.1 x 50 mm; eluents: water / acetonitrile, 0.1% formic acid. An outline of the steps: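 Data were gathered over 3 months by HPLC coupled to a quadrupole time-of-flight mass spectrometer, operated in positive and negative ionization mode. Mixtures of ~100 pure standards ran on a Zorbax Extend-C18 column (2.1 × 50 mm, 1.8 μm) at 100 μL/min, with water and acetonitrile each containing 0.1% formic acid and dead and dwell volumes of 40 μL and 900 μL. Retention time was read from adduct peaks picked by computer and checked manually.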
As for `CN1C(=O)c2cc(C(=O)Nc3ccccc3Br)nn2CC1(C)C(=O)NC1CCCCC1` (centres undefined), the RP-LC retention time worked out at 807 s. The molecule `O=C(CCNc1c(-c2ccccc2)nc2cnccn12)NCc1cccc(F)c1` yielded an RP-LC retention time of 698 s. In the case of `Cn1c(=O)n(CCN2CCOCC2)c(=O)c2c1nc1n2CCCN1c1ccccc1` it was 615 s.

The molecule `CCCN1CCN(C(=O)CN2C(=O)C3CCCCN3c3ccc(S(=O)(=O)N(C)C)cc32)CC1` (centres undefined) registered an RP-LC retention time of 628 s. In the case of `CCc1ccccc1S(=O)(=O)N1CCC(C(=O)NCc2csc(-c3cccs3)n2)CC1` it was 950 s; in that of `CCn1cc(S(=O)(=O)NCc2cc(F)cc(F)c2)c2cccnc21`, 828 s; in that of `O=C(Nc1ccccc1C(F)(F)F)N1CCC(n2cnc3cccnc32)CC1`, 657 s. In the case of `COc1ccc(NC(=O)c2cc3c(=O)n(CC(C)C)ccc3n2C)cc1Cl` it was 895 s; in that of `Cc1cccc(-c2noc(-c3nn(CC(=O)NC(C)C)c4ccccc34)n2)c1`, 1090 s.

In turn, `CCn1cc(-c2nc(C(=O)NCc3ccc(F)cc3F)cs2)c2cccnc21` registered an RP-LC retention time of 992 s. In the case of `CCNC(=O)c1ncn2c1C(=O)N(C1CC1)C(C)(C(=O)NCc1ccccc1)C2` (centres undefined) it was 656 s; in that of `CCN1C(=O)CCc2cc(NS(=O)(=O)c3cccc4cccnc34)ccc21`, 758 s. In the case of `O=C(Cn1cccc1-c1nc(-c2ccc(F)cc2)no1)Nc1ccc2c(c1)OCCO2` it was 944 s. In the case of `CCOC(=O)CNC(=O)NCc1cccn1Cc1ccccc1C` it was 737 s; in that of `COc1ccc(N2CCN(CC(O)c3ccc(C)cc3)CC2)cc1` (centres undefined), 677 s; in that of `COc1ccc(-c2nc3ncccn3c2NCc2ccc(Cl)cc2)cc1OC`, 717 s.

The molecule `CCN1C(=O)Cc2cc(C(=O)NC3CCCCCC3)ccc21` registered an RP-LC retention time of 797 s. For `CC1(C)C(=O)NCCN1C(=O)c1cccc(Br)c1`, the RP-LC retention time came out at 649 s. Molecule `CCc1cc(N2CCN(C(=O)c3ccc4c(c3)OCO4)CC2)nc2nnc(C)n12` returned an RP-LC retention time of 607 s.

On to `CS(=O)(=O)Nc1ccc(C2(C(=O)NC3CCCC3)CCCCC2)cc1`, for which the RP-LC retention time came to 634 s.

`O=C(Cc1cccs1)N1CCCC1c1cccc(F)c1` (centres undefined) registered an RP-LC retention time of 817 s.

In turn, `O=C(Nc1cccnc1)C1CCCN(S(=O)(=O)c2cc(-c3noc(C4CCCC4)n3)cs2)C1` (centres undefined) registered an RP-LC retention time of 825 s. In the case of `COc1ccc(S(=O)(=O)N2CCC(c3ccncc3)CC2)cc1Cl` it was 667 s; in that of `CC(C(=O)N1CCCCC1)n1ccc2cc(S(=O)(=O)N3CCCCCC3)ccc21` (centres undefined), 1010 s; in that of `CCN(CC)C(=O)c1ccc(Cn2nc(C)c(S(=O)(=O)N3CCC(C)CC3)c2C)cc1`, 917 s.

`O=C(Nc1cccc(N2CC(C(=O)Nc3ccc(C(F)(F)F)cc3)CC2=O)c1)C1CCC1` (centres undefined) gave an RP-LC retention time of 880 s. In the case of `O=C(CCc1cn(Cc2ccccc2Cl)c2ccccc12)N1CCN(c2ccccn2)CC1` it was 796 s; in that of `COc1ccccc1NC(=O)Nc1nc(CC(=O)N2CCC(C(N)=O)CC2)cs1`, 640 s; in that of `Cc1cc(C)n(-c2ccnc(N3CCC(C(=O)N4CCN(c5ccccn5)CC4)CC3)n2)n1`, 629 s. In the case of `CCCN1C(=O)COc2ccc(-c3noc(Cc4cccc(OC)c4)n3)cc21` it was 1080 s; in that of `Cc1noc(C2CN(Cc3cc(Br)ccc3F)C2)n1`, 554 s; in that of `Cc1cc(C)cc(N2CC(c3nc(-c4ccc5c(c4)OCO5)no3)CC2=O)c1` (centres undefined), 1040 s. In the case of `Cc1ccc(NC(=O)N2CCC(n3c(-c4ccoc4)nc4cccnc43)C2)cc1F` (centres undefined) it was 774 s; in that of `CN1C(=O)CCC2(CNC(=O)c3cccn3C)CCC=C12` (centres undefined), 720 s. For `COC1CCC12CCN(Cc1ccccn1)CC2` (centres undefined), the RP-LC retention time worked out at 571 s. Turning to `Cc1ccc(-c2cc(C(=O)NCCN(C)C)n(C)c2)cc1`, the RP-LC retention time is 657 s.

In turn, `O=C(Nc1cc(F)cc(F)c1)Nc1cccc(-c2nccnc2N2CCOCC2)c1` yielded an RP-LC retention time of 940 s. The molecule `COc1ccc(-c2nc(C)cc(C)c2CNS(=O)(=O)c2cccc(C)c2)cc1` displayed an RP-LC retention time of 668 s. In the case of `NC(=O)c1cc(=O)[nH]c2ccc(F)cc12` it was 558 s; in that of `Cn1cccc1C(=O)N1CCC2(CC1)NC(=O)N(Cc1cccc(Cl)c1)C2=O`, 821 s. For `Cc1nnc2ccc(N3CCC(C(=O)NCCCN4CCN(c5ccc(F)cc5)CC4)CC3)nn12`, the RP-LC retention time was determined as 838 s. In the case of `CCSc1nc2ccc(NS(=O)(=O)c3cccc(F)c3)cc2s1` it was 998 s.

As for `O=C(CNC(=O)c1ccc(F)c(Cl)c1)Nc1nc2ccccc2[nH]1`, the RP-LC retention time amounted to 660 s. In the case of `COc1ccc2[nH]cc(CCNC(=O)CN3C(=O)CSc4cccn4-c4ccccc43)c2c1` it was 859 s.

For the molecule `Cc1ccc(-c2noc(CN3N=NC4C(=O)N(c5ccc(F)c(Cl)c5)C(=O)C43)n2)cc1` (centres undefined), the RP-LC retention time is 1090 s. In the case of `CCNC(=O)N1CCc2c([nH]c3ccccc23)C12C(=O)N(C)c1ccc(Br)cc12` (centres undefined) it was 857 s; in that of `COc1ccc(NC(=O)c2cn(-c3cc(N4CCCC(C)C4)ncn3)cn2)cc1OC` (centres undefined), 973 s.

Consider `CCC(CC)COC(=O)c1[nH]c2c(c1C)C(=O)CC(c1ccc(OC)c(OC)c1)C2` (centres undefined), for which the RP-LC retention time worked out at 1140 s. In the case of `COCCCNC(=O)C1c2ccccc2C(=O)N1Cc1ccccc1` (centres undefined) it was 704 s; in that of `Cn1ccc2cc(S(=O)(=O)N3CCCC(C(=O)NCCC4=CCCCC4)C3)ccc21` (centres undefined), 1040 s; in that of `COc1ccc(-c2cc(C(=O)N3CCC(NC(=O)C4CC4)CC3)[nH]n2)cc1`, 652 s. In the case of `NC(=O)CSc1nnc(N2CCN(C(=O)c3ccccc3Cl)CC2)s1` it was 596 s. `CCCN1C(=O)c2cc(S(=O)(=O)Nc3cc(F)cc(F)c3)ccc2Oc2cccnc21` displayed an RP-LC retention time of 1080 s.

The molecule `Cc1ccccc1Nc1c(-c2cccc(Cl)c2)nc2ccccn12` had an RP-LC retention time of 787 s.

The molecule `CCN(Cc1ccccc1)C(=O)C1CCCN(S(=O)(=O)c2ccc3c(c2)CCCC(=O)N3)C1` (centres undefined) yielded an RP-LC retention time of 821 s.

For `CNc1nc(Nc2ccc(F)cc2)nc2ccccc12`, the RP-LC retention time is 655 s. In the case of `Cc1ccc(CN2C(=O)NC3(CCCN(C(=O)c4ccc5c(c4)OCO5)C3)C2=O)cc1` (centres undefined) it was 819 s.

The molecule `CCOC(=O)C(Cc1ccc(O)cc1)Nc1nc2ccccc2o1` (centres undefined) had an RP-LC retention time of 846 s. In the case of `O=C(NCc1cccnc1)C1CCCN(c2ncnc3c2oc2ccccc23)C1` (centres undefined) it was 576 s.
